Data set [1] has as its system non-cancerous human embryonic kidney HEK293T cells. Description: Cytotoxicity, PrestoBlue assay, HEK293T. The class given is cell-based. The note with it: 72 h, read-out: IC50 (µM) after 72 h, HEK293T. As to the method: (§1) counterpart, A2780cis, were procured from the European Collection of Cell
(§2) (ThermoFisher, USA) base medium supplemented with 10% Foetal Bovine
(§3) Serum (FBS; Sigma, Germany) and 1% of Penicillin-Streptomycin
(§4) (ThermoFisher, USA). Additionally, A2780cis cell line was cultured in the
(§5) drug. The human embryonic kidney cell line, HEK293T, and HeLa cell line were
(§6) obtained from American Type Culture Collection (ATCC, USA) and were cultured
(§7) in DMEM GlutaMAX (ThermoFisher, USA) base medium, supplemented with
(§8) 10% FBS and 1% of Penicillin-Streptomycin. All cell lines were maintained in a
(§9) humidified incubator at37 °C and 5% CO2.
(§10) 4.2. Cytotoxicity studies
(§11) cells/mL (A2780cis and HEK293T) was dispensed into flat bottom 96-well plates
(§12) and allowed to attach overnight. On the next day, 10 mM stock solutions of the
(§13) tested compounds were prepared in DMSO, then diluted with media to the final
(§14) concentration range of 0 - 100 µM and applied to the cells; 0.1% DMSO final
(§15) solution and 10 µM final concentration gambogic acid were used as negative and
(§16) positive controls, respectively. After 72 h incubation in a humidified incubator
(§17) under 5% CO2 at 37 °C, PrestoBlue™ cell viability reagent (Cat. No. A13262,
(§18) Invitrogen, USA) was added to cultures at a 1:10 ratio according to the
(§19) manufacturer instructions, and samples were incubated for 1.5 h. Fluorescence
(§20) at 560/590 nm was detected with Tecan Infinite 500 microplate reader (Tecan,
(§21) Switzerland). Three wells were assessed for each concentration of the tested
(§22) compounds and three independent experiments were performed. Non-linear
(§23) regression and IC50 value calculation were performed in GraphPad Prism 9 using
(§24) the build-in function “Dose response- Inhibition”.

The test system of data set [2] is A2780cis cells with acquired resistance to cisplatin. Description: Cytotoxicity, PrestoBlue assay, A2780cis. The class given is cell-based, human. Particulars: for IC50: 72 h, read-out: IC50 (µM) after 72 h, A2780cis; for Resistance index (RI): RI = IC50 A2780cis/IC50 A2780. On the procedure:
as §1, §2, §3, §4, §5, §6, §7, §8, §9, §10, §11, §12, §13, §14, §15, §16, §17, §18, §19, §20, §21, §22, §23, §24

Data set [3] deals with A2780 ovarian cancer cell line. Nature of the data set: Cytotoxicity, PrestoBlue assay, A2780. Type of data set: cell-based, human. The note with it: read-out: IC50 (µM) after 72 h, A2780. As to the method:
as §1, §2, §3, §4, §5, §6, §7, §8, §9, §10, §11, §12, §13, §14, §15, §16, §17, §18, §19, §20, §21, §22, §23, §24

Data set [4] concerns DNA synthesis in HeLa cells. Nature of the data set: EdU incorporation assay, fluorescence cell microscopy. The note with it: for Degree of inhibition of DNA synthesis: 3 µM, 24 h, gemcitabine = 100%, DMSO = 0%. Type of data set: cell-based. An excerpt:
The inhibitory effect of Pt1^Y and Pt2^Y (Y = NR, O, S) on DNA synthesis during cell proliferation was quantified in cellulo using an EdU incorporation assay and fluorescence cell microscopy (Fig. 6 and SI Fig. 12).[70] Gemcitabine, a clinically-approved DNA synthesis inhibitor,[71] was used as a positive control (100% inhibition), and the cells treated with an equivalent amount of DMSO served as a negative control (“untreated”, 0% inhibition). Cisplatin and transplatin were included as references. DNA synthesis was blocked to various degrees in the cells treated with the different platinum complexes. […]
4.4. EdU incorporation assay
EdU incorporation assay was performed using a Click-iT EdU Imaging kit
(C10086, Thermo Fisher, Switzerland) according to the manufacturer’s protocol.
HeLa cells were seeded into a black 96-well PhenoPlate with optically clear flat-bottom (Revity 6055302) at a concentration of 4000 cells per well. After 24 h, the cells were treated with the tested compounds Pt1Y and Pt2Y (Y = NR, O, S), […]
of the compounds in HeLA cells). Gemcitabine (1 and 3 µM) and an equal volume of DMSO were used as positive and negative control, respectively. Each condition was tested in triplicate. The assay was performed after an incubation of 24 h. The cells were additionally stained by Hoechst 33342 diluted in PBS with 3% BSA. The fluorescent signal was detected with the widefield INCell 2200 microscope (GE health care, USA) using a 10X/0.45 objective. The DAPI channel was used for Hoechst 33342 emitting blue (λex = 390/ 18 nm, λem = 432.5/ 48 nm), and the FITC channel for Edu-AlexaFluor-488 (λex = 475/ 28 nm, λem = 511.5/23 nm) emitting in green. For each well, 9 fields of view were captured. Image analysis was performed using CellProfiler (v4.2.5), CellProfiler Analyst (v3.0.4) and FIJI (v1.54k) software. Images were first pre -processed (correction for flat - field illumination using a Gaussian-based smoothing filter and rescaled for segmentation). All cells were segmented using the minimum cross -entropy thresholding method on an intermediate image composed of the addition of 2 channels imaged. For all cells, featur es of size, shape, and fluorescence intensities were extracted. Cells were then either classified directly as live or dead based on a combination of their size and EdU staining intensity or classified automatically as live or dead using a machine learning -based random forest classifier model in a multiparametric approach. The readout used is the average percentage of live or dead cells in each condition and the values are normalised to gemcitabine at 3 μM and DMSO (untreated) with the corresponding volume at […]

The subject of data set [5] is ovarian cancer cell lines (A2780 and A2780cis). Nature of the data set: Cytotoxicity stated jointly for both ovarian cancer cell lines. As to the method: as §1, §2, §3, §4, §5, §6, §7, §8, §9, §10, §11, §12, §13, §14, §15, §16, §17, §18, §19, §20, §21, §22, §23, §24
Data set [6] can be described thus: n-octanol/water partition coefficient. Type of data set: physicochemical. An excerpt: Resistance index (RI) ^a, and n-octanol/water partition coefficients (logPOW) | column: logPOW
[7] abbreviates: Homo sapiens, HEK-293T, PrestoBlue.
Setting [8] is: Homo sapiens, A2780cis, PrestoBlue.
Where [9] appears, read: Homo sapiens, A2780, 72 h, PrestoBlue.

Where two headings read alike, the source gives them in different places. A value given as a limit tells only on which side of the number the result lay.

From PMC12794336, “Unconventional chalcogen-containing azolylidene metal complexes as potential anticancer therapeutics” (Chemical Science, 2025) come the findings set out here.

A word on the IC50: it is the point on the concentration scale where inhibition reaches its midpoint. By inhibition is commonly meant how much of the control response was suppressed.

As for `C[n+]1ccsc1` [1S·HI], the IC50 in data set [1] (setting [7]), in data set [2] (setting [8]) and in data set [3] (setting [9]) was above 100 µM each time.
For `c1ccc(Cn2c[n+](Cc3ccccc3)c3ccccc32)cc1` [4NBn·HBr], the IC50 is 35.2 ± 26.3 µM in data set [1] (setting [7]), 24.4 ± 11.7 µM in data set [2] (setting [8]) and 15.2 ± 12.1 µM in data set [3] (setting [9]).
In the case of `CC(=O)OC[C@H]1O[C@@H]([S-])[C@H](OC(C)=O)[C@@H](OC(C)=O)[C@@H]1OC(C)=O.CCP(CC)CC.[Au+]` [Auranofin, auranofin, reference compound], the IC50 amounted to 0.4 ± 0.1 µM in data set [1] (PrestoBlue); 1.9 ± 0.4 µM in data set [2] (PrestoBlue); 0.1 ± 0.1 µM in data set [3] (72 h, PrestoBlue). Besides, the “Resistance index (RI)” value in data set [2] is 20.6.
In the case of `[I][Pt-2]([I])([c]1n(Cc2ccccc2)cc[n+]1Cc1ccccc1)[n+]1ccccc1` [Pt2^NBn], the IC50 in data set [1] (PrestoBlue) is 1.4 ± 0.1 µM; in data set [2] (PrestoBlue) it was 1.2 ± 0.1 µM; in data set [5], around 1 µM; in data set [3] (72 h, PrestoBlue), 0.6 ± 0.2 µM. Further, in data set [4], the “Degree of inhibition of DNA synthesis” value is recorded as 100%. For the same compound, in data set [2], the “Resistance index (RI)” value stood at 1.9. Besides, the logPOW in data set [6] was 2.1 ± 0.8.
With `N.N.[Cl][Pt+2][Cl]` [transplatin, reference compound], the “Degree of inhibition of DNA synthesis” value in data set [4] was 23%.
Take `CC[n+]1[c]([Au-][I])oc2ccccc21` [Au3^O]: the IC50 in data set [1] (PrestoBlue, listed as Au3^S) was 1.9 ± 0.3 µM; in data set [1] (PrestoBlue, listed as Au3^Se), 0.1 ± 0.1 µM; in data set [1] (PrestoBlue), 1 ± 0.1 µM; in data set [2] (PrestoBlue, listed as Au3^S) it was 6.4 ± 0.4 µM; in data set [2] (PrestoBlue, listed as Au3^Se) it was 0.2 ± 0.1 µM; in data set [2] (PrestoBlue), 5 ± 2 µM. The IC50 in data set [3] (72 h, PrestoBlue, listed as Au3^S) is 0.2 ± 0.1 µM; in data set [3] (72 h, PrestoBlue, listed as Au3^Se) it was 0.1 ± 0.1 µM; in data set [3] (72 h, PrestoBlue) it was 0.2 ± 0.2 µM. In addition, the “Resistance index (RI)” value in data set [2] was determined as 31.5; in data set [2] (listed as Au3^S) it was 29.2; in data set [2] (listed as Au3^Se), 3.4. For the same compound, the logPOW in data set [6] (n-octanol/water) is 1.2 ± 0.4; in data set [6] (n-octanol/water, listed as Au3^S), 1.5 ± 0.1; in data set [6] (n-octanol/water, listed as Au3^Se) it was 1.4 ± 0.3.
Consider `CC[n+]1coc2ccccc21` [3O·HI], for which the half-maximal inhibitory concentration (IC50) in data set [1] (setting [7]), in data set [2] (setting [8]) and in data set [3] (setting [9]) was above 100 µM throughout.
On to `C[n+]1ccoc1` [1O·HI], for which the IC50 came to 59.1 ± 16.6 µM in data set [1] (setting [7]), 39.8 ± 2.6 µM in data set [2] (setting [8]) and 11.8 µM in data set [3] (setting [9]).
In the same order, the values of `CCn1c[n+](CC)c2ccccc21` [3NEt·HI] are above 100 µM, above 100 µM and above 100 µM.
For `c1ccc(C[n+]2ccoc2)cc1` [2O·HBr] the same measures were above 100 µM, above 100 µM and above 100 µM.
For `c1ccc(Cn2cc[n+](Cc3ccccc3)c2)cc1` [2NBn·HBr], the figures for the IC50 in data set [1] (setting [7]), in data set [2] (setting [8]) and in data set [3] (setting [9]) were 51.1 ± 12.4 µM, 44.1 µM and 37.4 µM, respectively.
Turning to `C[n+]1cco[c]1[Pt-2]([I])([I])[n+]1ccccc1` [Pt1^O], the concentration for half-maximal inhibition (IC50) in data set [1] (PrestoBlue, listed as Pt1^S) worked out at 47 ± 23 µM; in data set [1] (PrestoBlue) it was 18 ± 6 µM; in data set [2] (PrestoBlue, listed as Pt1^S), 30 ± 29 µM; in data set [2] (PrestoBlue), 16 ± 4 µM; in data set [3] (72 h, PrestoBlue, listed as Pt1^S), 13 ± 8 µM; in data set [3] (72 h, PrestoBlue), 8 ± 2 µM. Besides, the “Degree of inhibition of DNA synthesis” value is reported as 38% in data set [4] and 6% in data set [4] (listed as Pt1^S). For the same compound, the “Resistance index (RI)” value was 2.0 in data set [2] and 2.4 in data set [2] (listed as Pt1^S).
`Nc1ccn([C@@H]2O[C@H](CO)[C@@H](O)C2(F)F)c(=O)n1` [gemcitabine, reference compound]: the inhibition at 1 µM in data set [4] (Homo sapiens, gemcitabine 1 µM, set as 100%, read-out: Degree of inhibition of DNA synthesis (positive control)) was 100%.
On to `Cn1cc[n+](C)c1` [1NMe·HI], for which the concentration for half-maximal inhibition (IC50) in data set [1] (setting [7]), in data set [2] (setting [8]) and in data set [3] (setting [9]) was above 100 µM each time.
Regarding `c1ccc(C[n+]2ccsc2)cc1` [2S·HBr], the results for the IC50 in data set [1] (setting [7]), in data set [2] (setting [8]) and in data set [3] (setting [9]) were above 100 µM, 73.5 µM and 58.6 µM, respectively.
`c1ccc(C[n+]2csc3ccccc32)cc1` [4S·HBr]: the half-maximal inhibitory concentration (IC50) in data set [1] (setting [7]) is 36.8 ± 19.3 µM; in data set [2] (setting [8]), 37.9 ± 1.7 µM; in data set [3] (setting [9]), 34.7 µM.
`c1ccc(C[n+]2c[se]c3ccccc32)cc1` [4Se·HBr]: the IC50 came out at 20.5 ± 14.2 µM in data set [1] (Homo sapiens, HEK-293T); 28.4 ± 8 µM in data set [2] (Homo sapiens, A2780cis); 13.5 ± 5.9 µM in data set [3] (Homo sapiens, A2780, 72 h).
As for `CCn1[c]([Au-][I])[n+](CC)c2ccccc21` [Au3^NEt], the concentration for half-maximal inhibition (IC50) in data set [1] (PrestoBlue) worked out at 2.1 ± 0.6 µM; in data set [2] (PrestoBlue), 2.7 ± 0.1 µM; in data set [3] (72 h, PrestoBlue), 0.6 ± 0.2 µM. Further, the “Resistance index (RI)” value in data set [2] is listed as 4.9. The same compound registered a logPOW in data set [6] (n-octanol/water) of 1.6 ± 1.1.
As to `N.N.[Cl][Pt][Cl]` [Cisplatin, cisplatin, reference compound], the IC50 in data set [1] (PrestoBlue) came to 1.5 ± 0.2 µM; in data set [2] (PrestoBlue, listed as cisplatin) it was 8.4 ± 4.6 µM; in data set [2] (PrestoBlue), 8 ± 5 µM; in data set [3] (72 h, PrestoBlue), 0.4 ± 0.1 µM. In addition, the “Degree of inhibition of DNA synthesis” value in data set [4] was 62%.
In the case of `CC[n+]1csc2ccccc21` [3S·HI], the IC50 in data set [1] (setting [7]), in data set [2] (setting [8]) and in data set [3] (setting [9]) was above 100 µM in each case.
